We go through nine compounds from patent publication US5500807A, “Selection method for pharmacologically active compounds” (The Regents of the University of California, priority 1992, dated 1996).

Data set [1] addresses T1, human thyroid hormone receptor (Homo sapiens, UniProt P10828).
T1 sequence (P10828 1-461): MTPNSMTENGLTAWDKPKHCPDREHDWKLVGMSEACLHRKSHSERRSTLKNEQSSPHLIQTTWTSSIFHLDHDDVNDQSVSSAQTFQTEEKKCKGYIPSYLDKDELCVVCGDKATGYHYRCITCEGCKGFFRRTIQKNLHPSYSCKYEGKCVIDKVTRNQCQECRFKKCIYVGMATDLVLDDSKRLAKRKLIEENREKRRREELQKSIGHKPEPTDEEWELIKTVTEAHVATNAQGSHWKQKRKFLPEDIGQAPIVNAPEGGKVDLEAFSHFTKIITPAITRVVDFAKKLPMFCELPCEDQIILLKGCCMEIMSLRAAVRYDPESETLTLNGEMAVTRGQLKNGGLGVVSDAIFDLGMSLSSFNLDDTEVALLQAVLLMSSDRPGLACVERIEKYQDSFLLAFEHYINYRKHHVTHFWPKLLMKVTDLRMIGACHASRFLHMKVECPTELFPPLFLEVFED
As to the kind of experiment: Receptor binding to in-vitro translated human thyroid hormone receptor (FIGS. 8-13). An excerpt: In FIGS. 8-13, human thyroid hormone receptor was produced by in-vitro translation of RNA coding for the receptor protein. The RNA was synthesized enzymatically using a human thyroid receptor DNA clone as a template.

The subject of data set [2] is thyroid hormone receptor in nuclei of intact GC cells. In kind it is cell-based, rat. The note with it: for competition with labeled T3, in words: intact cells.
Method: Cell Culture utilized GC cells obtained from the cellular culture facility at UCSF. GC cells were plated at 2-4×10^6 cells/100 mm tissue culture disk obtained from Falcone, and were maintained at 37° C., in the mixture of O2 /CO2 95/5%, in DMEM 21 medium containing 10% of fetal calf serum, obtained from J. R. Scientific, Woodland, Calif., to which 100/ml of penicillin and streptomycin, and 2 mM of glutamine were added.
After 18 hours, cells were rinsed with 1 ml of PBS for 10 minutes at 37° C. and incubated for four hours in DMEM containing 10% serum substitute solution and 2% stripped calf serum. […] Incubations were carried out at 37° C. on a Tilt table.
For data set [3] the following is noted: nuclear but not mitochondrial or cytosol fractions; cited from earlier work.
For data set [4] the following is noted: cited from earlier work.
For data set [5], the system named is rGH mRNA in GC cells. The settings on record: 300 pM T3; Northern analysis; FIG. 7a.
Method: GC cells were plated at 2-4×10^6 cells/100 mm tissue culture disk obtained from Falcone, and were maintained at 37° C., in the mixture of O2 /CO2 95/5%, in DMEM 21 medium containing 10% of fetal calf serum, obtained from J. R. Scientific, Woodland, Calif., to which 100/ml of penicillin and streptomycin, and 2 mM of glutamine were added.
Preparation and Quantitation of Cytoplasmic RNA was done by plating and attachment for 12-18 hours of GC cells, followed by deinducing 4 days in 20 ml of DMEM containing 10% serum substitute solution obtained from Cell Culture Facility, UCSF, and 2% of stripped serum, prepared above. Media were replaced after the second day of deinduction.
The amount of rGH message present in aliquots of GC cell cytoplasm was determined by Northern hybridization using glyoxylated RNA (Ibid., p. 380). Equal amounts of cytoplasmic RNA were examined per lane (15 or 20 ug). HeLa cell RNA was also tested as a control for specificity and background binding. […] Some blots were also probed with a 1.6 kb Kho I fragment of the pHF1 human gamma-actin gene according to Mol. Cel. […] Hybridizations were carried out for 18-48 hours at 42° C. Blots were autoradiographed with Kodak XAR-2 film using Cronex Lightning plus intensifying screens.
After hybridization, blots were autoradiographed and analyzed using Zenith scanning densitometer.
For data set [6], the system named is thyroid hormone receptor. The note with it: J. Clin. Invest., 83 (1989); cited from earlier work.
Where [7] appears, read: cases of clinical hypothyroidism.

For the compound `CCN(CC)CCOc1c(I)cc(C(C)=O)cc1I`, the “binding to T3 (thyroid hormone) receptor, in words” value in data set [1] is on record as “zero binding”.
The same measure, in the same setting: to `CCN(CC)CCOc1c(I)cc(C(=O)c2c(C)oc3ccccc23)cc1I` belongs “good binding to T3 receptor”.
Still for that read-out and setting: with `CCCCc1oc2ccccc2c1C(O)c1cc(I)c(OCCN(CC)CC)c(I)c1` (stereo not drawn) the entry was “binds weakly to the T3 receptor”; with `CCCCNC(Cc1cc(I)c(Oc2ccc(O)c(I)c2)c(I)c1)C(=O)O` (stereo not drawn), “binds to the T3 receptor”.
Still for that read-out and setting: with `COc1ccc(C(=O)n2cc(CNC(Cc3cc(I)c(Oc4ccc(O)c(I)c4)c(I)c3)C(=O)O)c3cc(OC)ccc32)cc1` (stereo not drawn) the entry was “binds to the T3 receptors”.
With `N[C@@H](Cc1cc(I)c(Oc2ccc(O)c(I)c2)c(I)c1)C(=O)O` [T3, triiodothyronine], the “competition with labeled T3, in words” value in data set [2] was “competed with labeled T3 for binding to the thyroid hormone receptors”. In addition, the “binding to cellular fractions, in words” value in data set [3] is “high-affinity, low capacity binding sites”.
On to `N[C@@H](Cc1cc(I)c(Oc2cc(I)c(O)c(I)c2)c(I)c1)C(=O)O` [T4, thyroxine], for which the “binding to cellular fractions, in words” value in data set [3] was “high-affinity, low capacity binding sites”.
For the compound `N[C@@H](Cc1cc(I)c(Oc2ccc(O)c(I)c2)c(I)c1)C(=O)O` [^125 I-T3], in data set [2] (intact GC cells, normalized to DNA content), the maximum binding capacity result is on record as “about 85 fmol/100 ug DNA”.
As to `CCCCc1oc2ccccc2c1C(=O)c1cc(I)c(OCCN(CC)CC)c(I)c1` [amiodarone, 2-butyl-3-[3,5-diiodo-4-(β-diethylaminoethoxy)-benzoyl]benzofuran], in data set [4] (setting [7]), the “T4 and T3 serum levels in clinical hypothyroidism” value is given as “normal or slightly decreased”; the “pituitary thyroid receptor hormone binding” value is reported as “decreased pituitary thyroid receptor hormone binding”; the “thyroid-stimulating hormone (TSH) levels” value is listed as “mildly elevated”. Moreover, the thyroid side effects result in data set [4] (chronic administration) was “both hyper- and hypothyroid-like side effects”. Besides, in data set [4] (in vivo), the “effect on peripheral T4 monodeiodination” value was “inhibition of peripheral T4 monodeiodination”; the “serum T4 and T3 levels” value is “changes in the concentrations of serum thyroxine (T4) and triiodothyronine (T3) levels”. Also, the “competition with labeled T3, in words” value in data set [2] is “competed with labeled T3 for binding to the thyroid hormone receptors”. For the same compound, in data set [5], the “effect on induction of rGH mRNA” value was “blocked the induction of rGH mRNA”. In data set [6], the “thyroid hormone antagonism, in words” value is reported as “behaves as a competitive inhibitor of triiodothyronine (T3)”.
